# Measured values reported in a melting point compilation (Tetko et al.; mined from patent text by program, amines drawn as free bases though some values may be those of a salt).
row,SMILES,melting point
1,c1ccc(N(c2ccccc2)c2ccc(-c3ccc(-c4ccnc(CNc5ccc6ccccc6c5)n4)cc3)cc2)cc1,204 to 205 °C
2,CC(C)OC1=CC2=CCC3C4CCC(=O)C4(C)CCC3C2(C)CC1 (stereo unspecified),147 to 151 °C
3,COc1ccccc1-c1ccc2c(c1)S(=O)(=O)NC(C1CCCCC1)N2 (stereo unspecified),219 to 222 °C
4,CC(=O)Oc1cc(/C=C/c2ccccc2)cc(OC(C)=O)c1OC(C)=O,119 to 120 °C
5,CCOc1cc2c(C)c(CCN3CCC(c4ccccc4)CC3)c(=O)oc2cc1OC,195 to 196 °C
6,Cc1ccc(S(=O)(=O)OC(=O)c2cccc(C(=O)OS(=O)(=O)c3ccc(C)cc3)c2)cc1,172 to 178 °C
7,Cn1ncc(/C=C/C(=O)Nc2ccc(Cc3nc(C(=O)O)cs3)cc2)c1-c1ccc(F)cc1,226 to 227 °C
8,COc1c(C)c2c(c(O)c1C/C=C(/Cl)CCC(=O)O)C(=O)OC2,135 to 137 °C
9,CC1(CN2CCN(c3cccccc3=O)CC2)NC(=O)NC1=O (stereo unspecified),231 to 232 °C
10,O=C(O)CCc1cccc(Oc2ccccc2Cl)c1O,90 to 92 °C
11,CCOC(=O)c1cc(OCc2ccccc2)ccc1OCC(F)(F)F,145 to 146 °C
12,COc1ccc(S(=O)(=O)N2CCN(C(=O)c3ccc(Nc4ccnc5cc(C(F)(F)F)ccc45)cc3)CC2)cc1,221 to 223 °C
13,CCCN(CCC)C1Cc2c(OC)ccc3ncn(c23)C1 (stereo unspecified),46 to 49 °C
14,Oc1ccc(-c2cnc3cnc(-c4ccc(O)cc4)nc3c2)cc1,307 to 308 °C
15,COc1cc(OCC(=O)O)cc2c1C(=O)CC1(CCCCC1)S2,195 to 196 °C
16,Cn1ncc2c3cc(Cl)c(Cl)cc3n(C3OC(CO)C(O)C3O)c21 (stereo unspecified),135 to 138 °C
17,ClCc1coc(-c2ccc(Cl)s2)n1,90 to 91 °C
18,C[C@@H](Cn1ncc2ccc(O)c(C=O)c21)NC(=O)OCc1ccccc1,135 to 137 °C
19,Cc1cc(-c2cc(C(F)(F)F)nn2-c2ccc(S(N)(=O)=O)c(F)c2)ccc1-c1ccco1,78 to 80 °C
20,OCc1ccccc1-c1ccc2nc(-c3ccc(Cl)cc3)cn2c1,164 to 166 °C
21,CC(=O)Oc1ccc([C@@H]2SC(C)(C)[C@H](C(=O)O)N2C(C)=O)cc1,199 to 201 °C
22,CC(C)(C)OC(=O)NNC1C2CC3CC(C2)CC1C3 (stereo unspecified),90 to 92 °C
23,O=C1COc2ccc(NC(=O)C(=O)N3CCC(Cc4ccccc4)CC3)cc2N1,186 to 187 °C
24,COc1ccc(/C(=C/C(=O)O)c2cc(C)cc(Cl)c2)cc1,190 to 192 °C
25,Cc1ccc2nc(CO)cc(Cl)c2c1,147 to 148 °C
26,Cc1ccc(-c2nnc3cc(-c4ccccc4)c(OCc4ncn(C)n4)nn23)s1,209 to 210 °C

row,SMILES,melting point
1,COCOc1ccc(C2(c3cccc(-c4cccnc4F)c3)N=C(N)N3CCCN=C32)cc1 (stereo unspecified),95 to 105 °C
2,O=[N+]([O-])c1ccc(Sc2cccc3cnccc23)nc1,115 to 117 °C
3,N#CC(c1ccc(C(F)(F)F)cc1)N1CCOCC1 (stereo unspecified),89 to 90 °C
4,COC(=O)c1ccc(O)cc1NC(=O)NS(=O)(=O)c1ccc(Cl)cc1,244 to 248 °C
5,O=C(Nc1ccccc1C(=O)NCc1ccccc1)N[C@@H](Cc1ccc(NC(=O)c2c(Cl)cccc2Cl)cc1)C(=O)O,165 °C
6,CC(C)(C)OC(=O)N1CCc2ccc(C(=O)NC3COCCn4c3nc(-c3ccncn3)cc4=O)cc2C1 (racemic),252 to 254 °C
7,COc1ccc(CN2C(=O)C3(COc4cc5c(cc43)OCCO5)c3ccccc32)cc1OC (stereo unspecified),209 to 211 °C
8,O=CNc1nc(C(=NOC(=O)C(Cl)Cl)C(=O)O)ns1,123 °C
9,CCOC(=O)c1nnc2n1-c1ccccc1C(c1ccccc1F)=NC2,195 to 197 °C
10,COc1cc(-c2nc(C)no2)cc2oc(=O)c(C)c(C)c12,172 to 174 °C
11,CN(C)CCSc1sc(-c2cc[nH]n2)c2c1C(=O)CC(C)(C)C2,212 to 214 °C
12,CC(C)C(=O)NC(=O)c1cccc(-c2noc(-c3ccccc3F)n2)c1,183 to 184 °C
13,Nc1c2c(nc3ccccc13)CCCC2N1CCCC1 (stereo unspecified),201 to 203 °C
14,C[C@H](NC(=O)CCn1cc(C2=C(c3cn(C)c4ccccc34)C(=O)NC2=O)c2ccccc21)C(=O)NCC(=O)N[C@@H](CCCCN)C(N)=O,158 to 160 °C
15,CS(=O)(=O)Nc1ccc(C(O)CN2CCCCCC2)cc1 (stereo unspecified),120 to 122 °C
16,COc1ccc(C2Sc3ccccc3NC(=O)C2CO)cc1 (stereo unspecified),217 °C
17,Nc1ccc(N2CCN(c3ccc(OCC(O)(Cn4cncn4)c4ccc(Cl)cc4Cl)cc3)CC2)cc1 (stereo unspecified),120 °C
18,COCCOc1cc2c(cc1-c1ccc(F)cc1)NC(=O)CC(c1cccc(-n3ccnc3)c1)=N2,196 to 197 °C
19,CCOC(=O)C1C(=O)N(CC)c2cc3c(cc21)OCC3 (stereo unspecified),82 to 84 °C
20,ON=C(CCC1CCN(Cc2ccccc2)CC1)c1ccc(N2CCCC2)cc1,153 to 158 °C
21,Cc1ccc2cc(-c3ccc4c(c3)C(C)(C)CCC4(C)C)ccc2c1,173 to 175 °C
22,Brc1ccc2c3c(cccc13)C(NCCCCCn1ccnc1)=N2,138 to 140 °C
23,Nc1ncnc2[nH]c(=O)sc12,> 370 °C
24,CCCCCCOc1nc(O)ns1,61 °C
25,COC(=O)c1cc(Br)c2c(c1Cl)OC(c1ccccc1)(c1ccccc1)O2,137 to 138 °C
26,O=C(O)CSCCCCCCNS(=O)(=O)c1ccc(Cl)cc1,104 to 105 °C

row,SMILES,melting point
1,O=[N+]([O-])c1ccc(CN2CCc3ccccc32)cc1,95 to 97 °C
2,O=C(O)c1ccc(Cl)nc1NCc1ccncc1,217 to 220 °C
3,CON=Cc1ccc2c(c1)ncn2-c1cccc(Br)c1,119 to 120 °C
4,O=C1NC(=O)/C(=C/c2cn(-c3ccccc3)nc2OCc2ccccc2)S1,> 300 °C
5,Cc1ccc(S(=O)(=O)N(C(N)=O)c2cccc(Br)n2)cc1,> 310 °C
6,CCOC(=O)c1c2c(n(CC(N)=O)c1C)C(=O)C(=O)c1ccc(Br)cc1-2,> 250 °C
7,O=C(CNC(=O)OCc1ccccc1)Nn1cccc1C(=O)c1ccccc1,96 to 98 °C
8,CCCCC/C(=C\C=C\C(=O)O)c1cccc(F)c1,84 to 85.5 °C
9,Nc1cc(Br)ccc1C(=O)NCc1ccc(Br)cc1F,143 to 144 °C
10,COc1cc(Nc2c(C#N)cnc3cc(-c4cccc5ccccc45)ccc23)c(Cl)cc1Cl,192 to 193 °C
11,CN(C)CCCOc1cc(-c2ncccc2Cl)cc2c(Nc3nccs3)n[nH]c12,215 to 217 °C
12,Cc1c(C(=O)Nc2ccc(N3CCC(N4CCOCC4)CC3)c(C#N)c2)cnn1Cc1ccccc1,155 °C
13,O=C(OCc1nc(/C=C/c2cn(-c3ccccc3)nc2O)cs1)c1ccccc1,215 to 216 °C
14,O=C(CCl)Nc1ccc2cn[nH]c2c1,155 to 160 °C
15,CN(C)c1ccc(N(C)C(=O)Cn2c(-c3ccc(Cl)cc3)nc3cccnc32)cc1,152 to 155 °C
16,CC1CC(O)CC2=CCC3C4CCC(=O)C4(C)CCC3C21C (stereo unspecified),167 to 169 °C
17,CC(C)(C)OC(=O)c1ncn2c1CN(C(=O)N1CCOCC1)c1cc(F)ccc1-2,196 °C
18,CC(C)[C@@H](NC(=O)OC(C)(C)C)[C@H]1CCn2c(cc3ccccc32)C1,122 to 124 °C
19,CCOC(=O)Cn1c(-c2ccccc2Cl)nc2cccnc21,64 to 66 °C
20,Cc1ccccc1C1c2cc(NC(=O)CC(C)(C)C)c(C)c(C)c2OC1(C)C (stereo unspecified),161 to 162 °C
21,CCCCOc1ccc(C(=O)N[C@@H]2CCc3cccc(C4CCN(C)CC4)c3C2)cc1,162 to 164 °C
22,Nc1cc(C(=O)O)c(F)c(F)c1F,164 to 166 °C
23,COC(=O)c1c(Cc2ccc(C(=O)NCCO)cc2)c(=O)c2ccc(Cl)cc2n1-c1ccccc1,162 to 164 °C
24,CCCCNC(=O)Nc1ccc(OCC2CC2)cc1C(=O)NCC1CCN(C(c2ccccc2)c2ccccc2)CC1,190 to 192 °C
25,O=C(CCCCl)Nc1ccc2c(c1NC(=O)CCCCl)C(=O)c1ccccc1C2=O,154 to 155 °C
26,COc1ccc2nc3c(cc2c1)c(N)nn3C,185 to 186 °C

row,SMILES,melting point
1,O=C(c1ccccc1)c1nc(Br)ccc1[N+](=O)[O-],146 to 148 °C
2,COC(=O)[C@H](Cc1ccc(NC=O)cc1)NC(C)=O,126 °C
3,COCCOCCN1C(=O)C2(COc3cc4c(cc32)OCCO4)c2c(OC)ccc(OC)c21 (stereo unspecified),109 to 110 °C
4,COC(=O)c1nccnc1Cl,30 °C
5,CC(C)(c1ccccc1)n1nnc(-c2ccccc2-c2ccc(CO)cc2)n1,117 to 120 °C
6,CN(C)CCCC1CCN(C=Nc2ccc3c(c2)C(=O)c2ccc(N=CN4CCC(CCCN(C)C)CC4)cc2C3=O)CC1,171 to 174 °C
7,O=Cc1scc2c3ccccc3c3ccccc3c12,198 to 199 °C
8,CCc1nc2cc(Nc3nccc(-c4ccc(N5CCN(CC)CC5)nc4)n3)ccc2o1,174 to 176 °C
9,N#Cc1cnn2c(-c3cccc(Cl)c3)ccnc12,238 to 240 °C
10,c1ccc(OCC2CO2)c(Cc2cccc3[nH]ccc23)c1 (stereo unspecified),78 °C
11,Nc1ccc(N2CCCC2)nn1,209 to 211 °C
12,Cc1cn(-c2c(F)cc3c(=O)c(C(=O)O)cn(C4CC4)c3c2F)cn1,215 to 223 °C
13,CC(Oc1ccc(F)cc1F)c1ccnc2ncnn12 (stereo unspecified),96 to 97 °C
14,CC(=O)c1cc(C=O)c(O)cc1O,134 to 136 °C
15,Cc1cn(C(c2ccccc2)c2ccc(Cl)c([N+](=O)[O-])c2)cn1 (stereo unspecified),105 °C
16,c1ccc(COc2ncnc3nc[nH]c23)cc1,175 to 177 °C
17,CC(=Cc1ccc(Br)cc1)c1ccc2c(C)c(C)c(C)c(C)c2c1,133 to 136 °C
18,CCOCc1nc2c(N)nc3cc(Br)ccc3c2n1CC1(O)CCCC1,128 to 130 °C
19,O=[N+]([O-])c1ccccc1N1CCc2ccccc21,62 to 64 °C
20,CC1=NC(C)(C)N(O)C1(C)C,127 to 128 °C
21,CCCCCCCCCCCCCCCCCCSCC(CO)C(C)C (stereo unspecified),29 °C
22,NC(C=Cc1ccccc1)=NO,85 to 87 °C
23,Nc1nc2ccc(NC(=O)C(=O)N3CCC(Cc4ccccc4)CC3)cc2s1,203 °C
